# Values of other authors, collected in patent US20210316038A1, “ANTIBIOTIC ELUTING POLY(ESTER UREA) FILMS, MESHES AND POUCHES FOR INFECTION CONTROL OF IMPLANTABLE MEDICAL DEVICES” (The University of Akron, priority 2019, published 2021).
smiles,measurement,value
Cc1nnc(SCC2=C(C(=O)O)N3C(=O)[C@@H](NC(=O)Cn4cnnn4)[C@H]3SC2)s1 [Cefazolin],solubility in water,Cefazolin has high solubility in water (>100 mg/ml
